Laboratory results reported in patent US20140087945A1, “SUBSTITUTED 4-CYAN-3-(2,6-DIFLUOROPHENYL)-4-PHENYLBUTANOATES, METHOD FOR THE PRODUCTION THEREOF AND USE THEREOF AS HERBICIDES AND PLANT GROWTH REGULATORS” (Bayer Intellectual Property GmbH, priority 2011, published 2014).

How the values were obtained:
[1] = test system: a plurality of harmful plants; test: Herbicidal post-emergence action, greenhouse pot test; type: in vivo; details: post-emergence method
Protocol: Seeds of monocotyledonous and dicotyledonous weed and crop plants are placed in sandy loam in wood-fiber pots, covered with soil and cultivated in a greenhouse under good growth conditions. 2 to 3 weeks after sowing, the test plants are treated at the one-leaf stage, where the compounds (I) according to the invention, formulated in the form of wettable powders (WP), are applied by spraying as aqueous suspension or emulsion at a water application rate of 600 l/ha (converted) with the addition of 0.2% of wetting agent to the green parts of the plants. After the test plants have been kept in the greenhouse under optimum growth conditions for about 3 weeks, the activity of the preparations is rated visually in comparison to untreated controls in percent (%): For example, 100% activity=the plants have died, 50% herbicidal activity or damage=the plants have been reduced by 50% or the plant mass has been reduced by 50%, 0% activity=like control plants.

[2] = test system: a plurality of harmful plants; test: Herbicidal pre-emergence action, greenhouse pot test; type: in vivo; details: pre-emergence method; application rate of 320 g or less of active substance per hectare
Excerpt: Seeds of monocotyledonous and dicotyledonous weed plants and crop plants are placed in wood-fiber pots in sandy loam and covered with soil. The compounds (I) according to the invention, formulated in the form of wettable powders (WP), are then applied as aqueous suspension or emulsion at a water application rate of 600 l/ha (converted) with the addition of 0.2% of wetting agent to the surface of the covering soil. After the treatment, the pots are placed in a greenhouse and kept under good growth conditions for the test plants. After about 3 weeks, the effect of the preparations is scored visually in comparison with untreated controls as percentages. For example, 100% activity=the plants have died, 50% herbicidal activity or damage=the plants have been reduced by 50% or the plant mass has been reduced by 50%, 0% activity=like control plants.

COC(=O)CC(c1c(F)cccc1F)C(C#N)c1ccc(F)cc1 (mixture of isomers) [Example 1-3]
herbicidal activity against a plurality of harmful plants [1]: good herbicidal activity
herbicidal activity against a plurality of harmful plants [2]: good herbicidal activity

COC(=O)CC(c1c(F)cccc1F)C(C#N)c1ccc(Cl)cc1 (mixture of isomers) [Example 1-6]
herbicidal activity against a plurality of harmful plants [1]: good herbicidal activity
herbicidal activity against a plurality of harmful plants [2]: good herbicidal activity

COC(=O)CC(c1c(F)cccc1F)C(C#N)c1cc(F)cc(F)c1 (mixture of isomers) [Example 1-12]
herbicidal activity against a plurality of harmful plants [1]: good herbicidal activity
herbicidal activity against a plurality of harmful plants [2]: good herbicidal activity

COC(=O)CC(c1c(F)cccc1F)C(C#N)c1ccc(F)c(Cl)c1 (mixture of isomers) [Example 1-15]
herbicidal activity against a plurality of harmful plants [1]: good herbicidal activity
herbicidal activity against a plurality of harmful plants [2]: good herbicidal activity

COC(=O)CC(c1c(F)cccc1F)C(C#N)c1ccc(Cl)c(Cl)c1 (mixture of isomers) [Example 1-16]
herbicidal activity against a plurality of harmful plants [1]: good herbicidal activity
herbicidal activity against a plurality of harmful plants [2]: good herbicidal activity

COC(=O)CC(c1c(F)cccc1F)C(C#N)c1cccc(I)c1 (mixture of isomers) [Example 1-19]
herbicidal activity against a plurality of harmful plants [1]: good herbicidal activity
herbicidal activity against a plurality of harmful plants [2]: good herbicidal activity

COC(=O)CC(c1c(F)cccc1F)C(C#N)c1ccccc1OC (mixture of isomers) [Example 1-24]
herbicidal activity against a plurality of harmful plants [1]: good herbicidal activity
herbicidal activity against a plurality of harmful plants [2]: good herbicidal activity

COC(=O)CC(c1c(F)cccc1F)C(C#N)c1ccc(OC)cc1 (mixture of isomers) [Example 1-26]
herbicidal activity against a plurality of harmful plants [1]: good herbicidal activity
herbicidal activity against a plurality of harmful plants [2]: good herbicidal activity

COC(=O)CC(c1c(F)cccc1F)C(C#N)c1ccc(OC)c(OC)c1 (mixture of isomers) [Example 1-27]
herbicidal activity against a plurality of harmful plants [1]: good herbicidal activity
herbicidal activity against a plurality of harmful plants [2]: good herbicidal activity

COC(=O)CC(c1c(F)cccc1F)C(C#N)c1ccc(OC)c(F)c1 (mixture of isomers) [Example 1-28]
herbicidal activity against a plurality of harmful plants [1]: good herbicidal activity
herbicidal activity against a plurality of harmful plants [2]: good herbicidal activity

COC(=O)CC(c1c(F)cccc1F)C(C#N)c1ccc(C(F)(F)F)c(F)c1 (mixture of isomers) [Example 1-29]
herbicidal activity against a plurality of harmful plants [1]: good herbicidal activity
herbicidal activity against a plurality of harmful plants [2]: good herbicidal activity

COC(=O)CC(c1c(F)cccc1F)C(C#N)c1cc(F)cc(C(F)(F)F)c1 (mixture of isomers) [Example 1-30]
herbicidal activity against a plurality of harmful plants [1]: good herbicidal activity
herbicidal activity against a plurality of harmful plants [2]: good herbicidal activity

N#CC(c1cc(F)cc(C(F)(F)F)c1)C(CC(=O)O)c1c(F)cccc1F (mixture of isomers) [Example 1-228]
herbicidal activity against a plurality of harmful plants [1]: good herbicidal activity
herbicidal activity against a plurality of harmful plants [2]: good herbicidal activity

COC(=O)CC(c1c(F)cccc1F)C(C#N)c1ccc(F)c(Br)c1 (mixture of isomers) [Example 1-232]
herbicidal activity against a plurality of harmful plants [1]: good herbicidal activity
herbicidal activity against a plurality of harmful plants [2]: good herbicidal activity

COC(=O)CC(c1c(F)cccc1F)C(C#N)c1ccc(F)c(C#N)c1 (mixture of isomers) [Example 1-233]
herbicidal activity against a plurality of harmful plants [1]: good herbicidal activity
herbicidal activity against a plurality of harmful plants [2]: good herbicidal activity

COC(=O)CC(c1c(F)cccc1F)C(C#N)c1ccc2ccccc2c1 (mixture of isomers) [Example 1-235]
herbicidal activity against a plurality of harmful plants [2]: good herbicidal activity

COC(=O)CC(c1c(F)cccc1F)C(C#N)c1ccc(F)c(F)c1 (stereo not drawn) [Example 1-11, methyl 4-cyano-3-(2,6-difluorophenyl)-4-(3,4-difluorophenyl)butanoate]
herbicidal activity against a plurality of harmful plants [2]: good herbicidal activity

N#CC(c1ccc(F)c(F)c1)C(CC(=O)O)c1c(F)cccc1F (stereo not drawn) [Example 1-106, 4-Cyano-3-(2,6-difluorophenyl)-4-(3,4-difluorophenyl)butanoic acid]
herbicidal activity against a plurality of harmful plants [1]: good herbicidal activity
herbicidal activity against a plurality of harmful plants [2]: good herbicidal activity

COC(=O)CC(c1c(F)cccc1F)C(C#N)c1ccc(F)c(F)c1 (stereo not drawn) [Example 1-230, methyl erythro-4-cyano-3-(2,6-difluorophenyl)-4-(3,4-difluorophenyl)butanoate]
herbicidal activity against a plurality of harmful plants [1]: good herbicidal activity
herbicidal activity against a plurality of harmful plants [2]: good herbicidal activity

COC(=O)CC(c1c(F)cccc1F)C(C#N)c1ccc(F)c(F)c1 (stereo not drawn) [Example 1-231, methyl threo-4-cyano-3-(2,6-difluorophenyl)-4-(3,4-difluorophenyl)-butanoate]
herbicidal activity against a plurality of harmful plants [2]: good herbicidal activity

COC(=O)C[C@@H](c1c(F)cccc1F)[C@@H](C#N)c1ccc(F)c(F)c1 [Example 2-11, Methyl (3R,4R)-4-cyano-3-(2,6-difluorophenyl)-4-(3,4-difluorophenyl)-butanoate]
herbicidal activity against a plurality of harmful plants [1]: good herbicidal activity
herbicidal activity against a plurality of harmful plants [2]: good herbicidal activity

COC(=O)C[C@@H](c1c(F)cccc1F)[C@@H](C#N)c1ccc(F)c(Cl)c1 [Example 2-15]
herbicidal activity against a plurality of harmful plants [2]: good herbicidal activity

CCOC(=O)C[C@@H](c1c(F)cccc1F)[C@@H](C#N)c1ccc(F)c(F)c1 [Example 2-107, Ethyl (3R,4R)-4-cyano-3-(2,6-difluorophenyl)-4-(3,4-difluorophenyl)-butanoate]
herbicidal activity against a plurality of harmful plants [1]: good herbicidal activity
herbicidal activity against a plurality of harmful plants [2]: good herbicidal activity

COC(=O)C[C@@H](c1c(F)cccc1F)[C@@H](C#N)c1ccc(F)c(Br)c1 [Example 2-229]
herbicidal activity against a plurality of harmful plants [1]: good herbicidal activity
herbicidal activity against a plurality of harmful plants [2]: good herbicidal activity

COC(=O)C[C@@H](c1c(F)cccc1F)[C@@H](C#N)c1ccc(F)c(C#N)c1 [Example 2-230]
herbicidal activity against a plurality of harmful plants [1]: good herbicidal activity
